Consider 2 molecules from patent publication US11485719B2, “Water soluble 3-ketocoumarins” (priority 2017, dated 2022).

SMILES strings stand for the structures.

The nature of test [1]: Reactivity test, water based clear formulation (FT-IR photopolymerization). The note with it: 3% wt photoinitiator + 3% wt triethanolamine in UCECOAT7200/Ebecryl 350 99:1. Here is the method: The photopolymerizable compositions for the test were prepared dissolving the photoinitiators and the co-initiator, triethanolamine, at a concentration of 3% by weight (wt) each in a mixture 99:1 wt of UCECOAT7200 and Ebecryl 350 (Allnex). The reference compound Omnirad 819 DW (45% wt in water) (COMP-1) was dissolved at a concentration of 6.6% by weight to have the same amount of active content.
The photopolymerizable compositions placed in the sample lodgment of a FT-IR (FT-IR 430-Jasco), were exposed to two different sources: • 1) a LED source (400 nm) located at a distance of 25 mm from the sample and at an angle of 30°. (Table 1) • 2) A Mercury lamp (160 W) located at a distance of 65 mm from the sample and at an angle of 30°. (Table 2)
IR spectra were acquired at constant time intervals during the photopolymerization and the reduction over the time of the area of the peaks at 1408 and 810 cm^−1 assigned to the acrylic double bonds was determined using the IR software. This allows quantifying the degree of polymerization and therefore the efficiency of the photoinitiator.
The results at 400 nm, expressed as % of polymerization over the time, are reported in Table 1 and the results with the Mercury lamp are reported in Table 2.

A short description of test [2]: Reactivity test, water based black inkjet ink (FT-IR photopolymerization). The settings on record: 5.0% wt photoinitiator + 5.0% wt triethanolamine in water based black ink. The method, then:
The photopolymerizable compositions for the test were prepared by dissolving the photoinitiators and the co-initiator triethanolamine at a concentration of 5.0% wt each in a water based black ink for ink-jet printing. The reference compound Omnirad 819 DW (45% wt in water) (COMP-1) was dissolved at a concentration of 11% by weight to have the same amount of active content.
The photopolymerizable compositions placed in the sample lodgment of a FT-IR (FT-IR 430-Jasco), were exposed to two different sources: • 1) a LED source (400 nm) located at a distance of 25 mm from the sample and at an angle of 30°. (Table 3) • 2) A Mercury lamp (160 W) located at a distance of 65 mm from the sample and at an angle of 30°. (Table 4)
IR spectra were acquired at constant time intervals during the photopolymerization and the reduction over the time of the area of the peaks at 1408 cm^−1 and 810 cm^−1 assigned to the acrylic double bonds was determined using the IR software. This allows quantifying the degree of polymerization and therefore the efficiency of the photoinitiator.
The results at 400 nm, expressed as % of polymerization over the time, are reported in Table 3 and the results with the Mercury lamp are reported in Table 4.

Turning to `COc1cc(OC)c2cc(C(=O)c3ccc(CCC(=O)O)cc3)c(=O)oc2c1` [Example 8], the “% of polymerization over the time” value in test [1] (LED source 400 nm, 0.5 sec) came to 7%; in test [1] (LED source 400 nm, 2 sec), 15%; in test [1] (Mercury lamp 160 W, 0.2 sec), 9%; in test [1] (Mercury lamp 160 W, 1 sec), 16%.
`COc1cc(OC)c2cc(C(=O)c3ccc(CC[N+]4(C)CCCCC4)cc3)c(=O)oc2c1.[Cl-]` [Example 14]: the “% of polymerization over the time” value is 38% in test [2] (LED source 400 nm, 0.5 sec); 62% in test [2] (LED source 400 nm, 2 sec); 67% in test [2] (Mercury lamp 160 W, 0.2 sec); 89% in test [2] (Mercury lamp 160 W, 1 sec); 23% in test [1] (LED source 400 nm, 0.5 sec); 27% in test [1] (LED source 400 nm, 2 sec). Moreover, the “% of polymerization over the time” value in test [1] (Mercury lamp 160 W, 0.2 sec) turned out to be 15%; in test [1] (Mercury lamp 160 W, 1 sec), 23%.
